How the values were obtained:
[1] = tested on: WT HIV-1 (IIIB strain); assay: Anti-HIV-1 activity, protection of infected MT-2 cells (MTT); assay type: cell-based; conditions: Human immunodeficiency virus 1, IIIB, MT2, running text; read-out: EC50 against WT HIV-1
[2] = tested on: MT-2 human T-cells; assay: Cytotoxicity, inhibition of MT-2 cell growth; assay type: cell-based; conditions: human

Row | SMILES | EC50 [1] [µM] | CC50 [2] [µM]
1 | Cc1ccc(OCCn2ccc(=O)[nH]c2=O)c(Cc2ccccc2)c1 [Compound 1, 1-(2-(2-benzyl-4-methylphenoxy)ethyl)pyrimidine-2,4(1H,3H)-dione] | 5 | –
2 | O=c1ccn(CCOc2ccc(Cl)cc2Cc2ccccc2)c(=O)[nH]1 [Compound 5, 1-(2-(2-benzyl-4-chlorophenoxy)ethyl)pyrimidine-2,4(1H,3H)-dione] | – | 23
3 | O=c1ccn(CCOc2ccc(Cl)cc2Cc2ccccc2Cl)c(=O)[nH]1 [Compound 6, 1-(2-(4-chloro-2-(2-chlorobenzyl)phenoxy)ethyl)pyrimidine-2,4(1H,3H)-dione] | – | 28
4 | O=c1ccn(CCOc2ccc(Cl)cc2Cc2cccc(Cl)c2)c(=O)[nH]1 [Compound 7, 1-(2-(4-chloro-2-(3-chlorobenzyl)phenoxy)ethyl)pyrimidine-2,4(1H,3H)-dione] | – | 11
5 | O=c1ccn(CCOc2ccc(Cl)cc2Cc2ccc(Cl)cc2Cl)c(=O)[nH]1 [Compound 8, 1-(2-(4-chloro-2-(2,4-dichlorobenzyl)phenoxy)ethyl)pyrimidine-2,4(1H,3H)-dione] | – | 88
6 | O=c1ccn(CCOc2ccc(Cl)cc2Cc2cc(Cl)cc(Cl)c2)c(=O)[nH]1 [Compound 9, 1-(2-(4-chloro-2-(3,5-dichlorobenzyl)phenoxy)ethyl)pyrimidine-2,4(1H,3H)-dione] | – | 10
7 | O=c1ccn(CCOc2ccc(Cl)cc2Cc2cc(Cl)ccc2Cl)c(=O)[nH]1 [Compound 10, 1-(2-(4-chloro-2-(2,5-dichlorobenzyl)phenoxy)ethyl)pyrimidine-2,4(1H,3H)-dione] | – | 15
8 | O=c1ccn(CCOc2ccc(Cl)cc2Cc2c(Cl)cccc2Cl)c(=O)[nH]1 [Compound 11, 1-(2-(4-chloro-2-(2,6-dichlorobenzyl)phenoxy)ethyl)pyrimidine-2,4(1H,3H)-dione] | – | 49
9 | Cc1cn(CCOc2ccc(Cl)cc2Cc2ccccc2)c(=O)[nH]c1=O [Compound 12, 1-(2-(2-benzyl-4-chlorophenoxy)ethyl)-5-methylpyrimidine-2,4(1H,3H)-dione] | – | 22
10 | O=c1[nH]c(=O)n(CCOc2ccc(Cl)cc2Cc2ccccc2)cc1F [Compound 13, 1-(2-(2-benzyl-4-chlorophenoxy)ethyl)-5-fluoropyrimidine-2,4(1H,3H)-dione] | – | 27
11 | O=c1[nH]c(=O)n(CCOc2ccc(Cl)cc2Cc2ccccc2)cc1Cl [Compound 14, 1-(2-(2-benzyl-4-chlorophenoxy)ethyl)-5-chloropyrimidine-2,4(1H,3H)-dione] | – | 21
12 | O=c1ccn(CCOc2cc(Cl)ccc2Cc2ccccc2Cl)c(=O)[nH]1 [Compound 15, 1-(2-(5-chloro-2-(2-chlorobenzyl)phenoxy)ethyl)pyrimidine-2,4(1H,3H)-dione] | – | 12
13 | N#Cc1cccc(Cl)c1Oc1cc(Cl)ccc1OCCn1ccc(=O)[nH]c1=O [Compound 21, 3-chloro-2-(5-chloro-2-(2-(2,4-dioxo-3,4-dihydropyrimidin-1(2H)-yl)ethoxy)phenoxy)benzonitrile] | – | 50
14 | N#Cc1ccc(Cl)c(Oc2ccc(Cl)cc2OCCn2ccc(=O)[nH]c2=O)c1 [Compound 23, 4-chloro-3-(4-chloro-2-(2-(2,4-dioxo-3,4-dihydropyrimidin-1(2H)-yl)ethoxy)phenoxy)benzonitrile] | – | 60
15 | N#Cc1ccc(Oc2cc(Cl)ccc2Cl)c(OCCc2ccncc2)c1 [Compound 33, 4-(2,5-dichlorophenoxy)-3-(2-(pyridin-4-yl)ethoxy)benzonitrile] | 0.76 | –
16 | N#Cc1ccc(Oc2cc(Cl)ccc2Cl)c(OCc2ccncc2)c1 [Compound 34] | 12 | –
17 | N#Cc1ccc(Oc2cc(Cl)ccc2Cl)c(COCc2ccncc2)c1 [Compound 35, 4-(2,5-dichlorophenoxy)-3-((pyridin-4-ylmethoxy)methyl)benzonitrile] | 1.8 | –
18 | COc1cc(Cl)ccc1Oc1cc(Cl)cc(C#N)c1 [Compound 36, 3-chloro-5-(4-chloro-2-methoxyphenoxy)benzonitrile] | 9.9 | –

From patent US9487476B2, “Catechol diethers as potent anti-HIV agents” (priority 2011, dated 2016)
